Measurements published in patent US8148532B2, “Spiro substituted compounds as angiogenesis inhibitors” (priority 2007, dated 2012).

How the values were obtained:
Assay type in all cases: biochemical
KDR(h) = biological target: T1, KDR(h) (Homo sapiens, UniProt P35968); test: in vitro tyrosine kinase inhibition, KDR(h)
T1 construct: purchased Millipore Upstate Ltd
Description: (§1) Several in vitro tyrosine kinase inhibition activities can be measured according to the description in Rewcastle, G W, J. Med. Chem. 1996, 39, 918-928 and Edwards M, International Biotechnology Lab 5 (3), 19-25, 1987. Oncogene, 1990, 5: 519-524. The Baculovirus Expression System: A Laboratory Guide, L. A. King 1992. Sambrook et al, 1989, Molecular cloning—A Laboratory Manual, 2nd edition, Cold Spring Harbour Laboratory Press. O'Reilly et al, 1992, Baculovirus Expression Vectors—A Laboratory Manual, W. H. Freeman and Co, New York.
(§2) Receptor tyrosine kinase can be obtained in partially purified form from A-431 cells similar to those described by Carpenter et al., J. Biol. Chem., 1979, 254, 4884, Cohen et al., J. Biol. Chem., 1982, 257, 1523 and by Braun et al., J. Biol. Chem., 1984, 259, 2051. Some of these tests can also be contracted with Millipore Upstate Ltd for screening.

Flt1(h) = biological target: T2, Flt1(h) (Homo sapiens, UniProt P17948); test: in vitro tyrosine kinase inhibition, Flt1(h)
T2 construct: purchased Millipore Upstate Ltd
T2 sequence (P17948 27-1338): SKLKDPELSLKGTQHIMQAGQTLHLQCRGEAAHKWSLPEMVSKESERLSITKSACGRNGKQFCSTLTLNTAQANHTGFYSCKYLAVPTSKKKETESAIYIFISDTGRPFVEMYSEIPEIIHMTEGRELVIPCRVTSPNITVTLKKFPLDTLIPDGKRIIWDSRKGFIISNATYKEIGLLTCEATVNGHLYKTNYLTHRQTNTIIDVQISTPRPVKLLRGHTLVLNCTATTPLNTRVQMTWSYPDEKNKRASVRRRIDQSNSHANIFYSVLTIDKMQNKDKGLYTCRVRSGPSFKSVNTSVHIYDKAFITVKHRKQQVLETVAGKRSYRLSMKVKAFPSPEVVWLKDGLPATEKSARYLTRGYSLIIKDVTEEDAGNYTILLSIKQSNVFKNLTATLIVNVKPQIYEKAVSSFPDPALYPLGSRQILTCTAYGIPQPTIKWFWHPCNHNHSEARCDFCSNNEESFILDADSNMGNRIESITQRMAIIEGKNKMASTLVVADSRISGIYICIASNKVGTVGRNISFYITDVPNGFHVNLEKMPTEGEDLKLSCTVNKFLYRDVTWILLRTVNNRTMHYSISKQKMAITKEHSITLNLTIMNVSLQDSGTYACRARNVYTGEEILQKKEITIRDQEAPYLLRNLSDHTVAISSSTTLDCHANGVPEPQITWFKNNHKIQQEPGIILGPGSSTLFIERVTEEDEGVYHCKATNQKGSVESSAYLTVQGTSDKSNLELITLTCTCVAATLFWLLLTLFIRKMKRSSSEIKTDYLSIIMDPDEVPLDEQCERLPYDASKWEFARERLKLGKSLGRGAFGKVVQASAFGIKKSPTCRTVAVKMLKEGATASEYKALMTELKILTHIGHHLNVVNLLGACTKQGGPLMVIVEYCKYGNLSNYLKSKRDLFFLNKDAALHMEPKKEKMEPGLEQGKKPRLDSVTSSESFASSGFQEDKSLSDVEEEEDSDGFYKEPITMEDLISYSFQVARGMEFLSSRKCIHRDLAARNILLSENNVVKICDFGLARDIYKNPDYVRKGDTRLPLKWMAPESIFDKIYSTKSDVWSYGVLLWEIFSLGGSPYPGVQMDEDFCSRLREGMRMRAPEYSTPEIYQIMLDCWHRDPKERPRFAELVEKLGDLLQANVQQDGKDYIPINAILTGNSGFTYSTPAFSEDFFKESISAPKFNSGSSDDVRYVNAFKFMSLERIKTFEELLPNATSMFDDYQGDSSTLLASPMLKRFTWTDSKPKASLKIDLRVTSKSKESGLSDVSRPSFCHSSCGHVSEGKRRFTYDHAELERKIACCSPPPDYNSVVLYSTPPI
Description: as §1, §2

FGFR1(h) = biological target: T3, FGFR1(h) (Homo sapiens, UniProt P11362); test: in vitro tyrosine kinase inhibition, FGFR1(h)
T3 construct: purchased Millipore Upstate Ltd
T3 sequence (P11362 22-822): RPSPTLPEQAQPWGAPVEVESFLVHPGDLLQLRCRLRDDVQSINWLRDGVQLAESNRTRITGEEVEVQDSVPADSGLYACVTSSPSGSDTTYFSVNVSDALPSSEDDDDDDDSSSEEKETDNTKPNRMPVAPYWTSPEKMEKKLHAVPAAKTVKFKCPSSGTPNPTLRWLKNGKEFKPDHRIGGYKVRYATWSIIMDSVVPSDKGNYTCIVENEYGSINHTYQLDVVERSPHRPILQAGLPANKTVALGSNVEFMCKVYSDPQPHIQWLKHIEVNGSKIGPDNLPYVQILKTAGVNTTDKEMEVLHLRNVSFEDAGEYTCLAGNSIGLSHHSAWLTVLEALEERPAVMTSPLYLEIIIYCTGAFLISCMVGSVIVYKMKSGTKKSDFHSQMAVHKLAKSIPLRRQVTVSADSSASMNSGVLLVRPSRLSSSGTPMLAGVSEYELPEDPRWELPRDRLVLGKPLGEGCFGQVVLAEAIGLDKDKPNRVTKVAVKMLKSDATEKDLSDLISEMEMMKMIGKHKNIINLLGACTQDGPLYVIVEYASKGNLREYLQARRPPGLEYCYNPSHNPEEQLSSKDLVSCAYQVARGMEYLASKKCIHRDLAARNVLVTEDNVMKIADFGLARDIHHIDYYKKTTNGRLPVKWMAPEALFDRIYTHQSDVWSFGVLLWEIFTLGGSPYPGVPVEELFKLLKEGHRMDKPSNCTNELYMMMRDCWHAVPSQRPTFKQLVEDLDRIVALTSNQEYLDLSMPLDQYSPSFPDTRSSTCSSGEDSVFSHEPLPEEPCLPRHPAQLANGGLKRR
Description: as §1, §2

Flt4(h) = biological target: T4, Flt4(h) (Homo sapiens, UniProt P35916); test: in vitro tyrosine kinase inhibition, Flt4(h)
T4 construct: purchased Millipore Upstate Ltd
T4 sequence (P35916 25-1363): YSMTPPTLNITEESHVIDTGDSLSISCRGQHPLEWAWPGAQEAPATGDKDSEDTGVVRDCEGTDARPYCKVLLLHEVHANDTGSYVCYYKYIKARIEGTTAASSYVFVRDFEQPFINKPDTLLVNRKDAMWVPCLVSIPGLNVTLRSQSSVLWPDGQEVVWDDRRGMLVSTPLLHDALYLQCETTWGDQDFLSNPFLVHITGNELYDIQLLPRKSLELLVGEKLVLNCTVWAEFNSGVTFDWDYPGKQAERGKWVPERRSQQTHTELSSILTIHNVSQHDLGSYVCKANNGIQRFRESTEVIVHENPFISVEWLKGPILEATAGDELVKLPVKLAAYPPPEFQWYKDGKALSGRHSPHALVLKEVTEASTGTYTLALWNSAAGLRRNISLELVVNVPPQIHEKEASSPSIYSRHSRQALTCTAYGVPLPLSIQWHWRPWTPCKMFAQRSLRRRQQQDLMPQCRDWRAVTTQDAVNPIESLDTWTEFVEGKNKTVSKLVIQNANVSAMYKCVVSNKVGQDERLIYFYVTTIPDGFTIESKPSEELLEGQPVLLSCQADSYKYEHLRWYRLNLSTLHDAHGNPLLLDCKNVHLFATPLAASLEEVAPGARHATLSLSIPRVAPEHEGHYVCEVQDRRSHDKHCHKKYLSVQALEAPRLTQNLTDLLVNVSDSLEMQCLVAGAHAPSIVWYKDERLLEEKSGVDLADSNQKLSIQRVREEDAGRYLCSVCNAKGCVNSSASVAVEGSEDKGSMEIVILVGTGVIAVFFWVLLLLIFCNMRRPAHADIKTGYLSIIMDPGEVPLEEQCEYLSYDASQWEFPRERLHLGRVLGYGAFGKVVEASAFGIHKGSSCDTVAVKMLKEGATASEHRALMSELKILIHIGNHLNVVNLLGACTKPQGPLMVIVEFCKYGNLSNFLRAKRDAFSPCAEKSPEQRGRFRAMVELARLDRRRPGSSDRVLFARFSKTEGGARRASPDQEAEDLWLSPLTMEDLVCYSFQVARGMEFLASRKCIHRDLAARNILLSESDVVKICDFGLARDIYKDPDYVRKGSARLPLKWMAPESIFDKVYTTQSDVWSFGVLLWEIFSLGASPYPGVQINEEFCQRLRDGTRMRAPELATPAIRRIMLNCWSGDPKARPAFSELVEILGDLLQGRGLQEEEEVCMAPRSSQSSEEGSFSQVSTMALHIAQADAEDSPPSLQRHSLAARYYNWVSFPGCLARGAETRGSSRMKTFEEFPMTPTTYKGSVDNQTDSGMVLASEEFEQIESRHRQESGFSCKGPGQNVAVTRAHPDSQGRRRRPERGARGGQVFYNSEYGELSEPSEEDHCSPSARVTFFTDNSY
Description: as §1, §2

T1 sequence (P35968 20-1356): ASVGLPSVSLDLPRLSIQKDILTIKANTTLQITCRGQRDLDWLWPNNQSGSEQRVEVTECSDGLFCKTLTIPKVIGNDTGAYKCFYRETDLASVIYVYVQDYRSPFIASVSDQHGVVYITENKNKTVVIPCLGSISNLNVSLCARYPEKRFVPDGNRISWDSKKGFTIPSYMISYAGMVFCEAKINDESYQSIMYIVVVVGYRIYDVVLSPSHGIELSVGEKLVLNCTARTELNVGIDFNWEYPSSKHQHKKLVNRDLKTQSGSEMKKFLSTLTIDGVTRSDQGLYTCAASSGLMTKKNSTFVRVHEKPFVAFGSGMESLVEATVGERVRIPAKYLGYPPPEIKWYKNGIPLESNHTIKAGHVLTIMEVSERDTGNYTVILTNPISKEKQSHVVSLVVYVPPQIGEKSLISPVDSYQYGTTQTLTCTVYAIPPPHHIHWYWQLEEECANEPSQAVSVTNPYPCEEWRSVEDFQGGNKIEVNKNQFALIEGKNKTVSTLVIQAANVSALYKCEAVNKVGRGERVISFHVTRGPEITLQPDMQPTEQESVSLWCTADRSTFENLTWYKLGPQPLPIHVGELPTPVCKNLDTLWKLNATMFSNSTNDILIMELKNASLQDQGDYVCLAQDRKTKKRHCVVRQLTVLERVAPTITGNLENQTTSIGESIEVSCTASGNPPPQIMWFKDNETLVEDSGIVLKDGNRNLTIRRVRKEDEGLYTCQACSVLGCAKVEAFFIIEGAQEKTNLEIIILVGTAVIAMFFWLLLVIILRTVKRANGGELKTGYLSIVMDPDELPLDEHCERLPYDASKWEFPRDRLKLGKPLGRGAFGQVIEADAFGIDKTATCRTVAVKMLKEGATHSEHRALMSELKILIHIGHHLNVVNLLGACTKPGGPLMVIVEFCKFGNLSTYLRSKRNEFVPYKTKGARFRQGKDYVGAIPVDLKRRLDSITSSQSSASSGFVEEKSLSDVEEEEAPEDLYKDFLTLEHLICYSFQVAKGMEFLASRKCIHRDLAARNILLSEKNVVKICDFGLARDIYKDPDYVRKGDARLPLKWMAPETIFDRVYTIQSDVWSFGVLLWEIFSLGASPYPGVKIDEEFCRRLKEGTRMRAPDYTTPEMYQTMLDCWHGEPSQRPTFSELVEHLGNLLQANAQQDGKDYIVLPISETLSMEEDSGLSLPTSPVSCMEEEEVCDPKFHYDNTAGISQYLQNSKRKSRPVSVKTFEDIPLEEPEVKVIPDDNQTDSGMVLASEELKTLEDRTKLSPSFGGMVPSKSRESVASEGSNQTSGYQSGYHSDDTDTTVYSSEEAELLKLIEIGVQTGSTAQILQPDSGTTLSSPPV

IC50 (KDR(h)): 45 nM | IC50 (Flt1(h)): 4 nM | IC50 (FGFR1(h)): 20 nM | IC50 (Flt4(h)): 1 nM
SMILES: COc1cc2c(Oc3ccc4[nH]c(C)cc4c3F)ccnc2cc1OCC1(N)CC1 [AL3818]
